Columns and labels:
Format in all cases: in vivo
Triticum aestivum = experiment: Damage to crop plant TRZAW, visual scoring vs untreated
Description: (§1) The examples given below were performed in the greenhouse and, in some cases, in field trials.
(§2) The herbicides, or combinations, were applied in cereals after the weeds had emerged naturally using plot sprayers. After application, the results, such as damage to the crop plants and effect on broad-leaved weeds/grass weeds were assessed by means of visual scoring. The herbicidal action was assessed qualitatively and quantitatively by comparing untreated and treated plots on the basis of the effect on plant growth and the development of chloroses and necroses down to the complete destruction of the weeds (0–100%). The application was effected when the crop plants and weeds were in the 2–4 leaf stage. The test was evaluated approximately 4 weeks after application.
(§3) In the greenhouse experiments, the crop plants and broadleaved weeds/grass weeds were grown in No. 13 pots and treated in the 2–4 leaf stage. The pots were subsequently placed in the greenhouse under good growth conditions (temperature, atmospheric humidity, water supply).
(§4) The assessments were carried out similarly to those in the field trials, i.e. visual scoring of the treated plants in comparison with untreated control variants. These assessments were carried out 3 weeks after applying the test preparations and their combinations. The experiments had been set up in two replications.

Gallium aparine = experiment: Herbicidal action on GALAP, visual scoring vs untreated, post-emergence 2-4 leaf stage; conditions: Table 7
Description: as §1, §2, §3, §4
(§5) To assess the combination effects, the activities of the individual components were added and compared with the activity of the mixtures in equal doses. It was frequently observed that the efficacies of the combinations exceeded the total of the individual activities.
(§6) In cases with less clear effects, the expected value was calculated using Colby's formula and compared with the empirically determined result. The calculated efficacy of a combination which is expected in theory is determined is using S.R. Colby's formula: “Calculation of synergistic and antagonistic responses of herbicide combinations”, Weeds 15 (1967), pages 20 to 22.
(§7) [formula] where • X=% damage caused by herbicide A at a rate of ×kg a.i./ha; • Y=% damage caused by herbicide B at a rate of y kg a.i./ha; • Z=% damage caused by a further herbicide C at a rate of z kg a.i./ha; • E=expected value, i.e. expected damage caused by herbicides A+B (or A+B+C) at x+y (or x+y+z) kg a.i./ha.
(§8) Synergistic effects were assumed to be when the empirical value exceeded the expected value. In the case of combinations with individual components with the same active substances, comparisons via the total formula were also possible.

Viola arvensis = experiment: Herbicidal action on VIOAR, visual scoring vs untreated, post-emergence 2-4 leaf stage; conditions: Table 7
Description: as §1, §2, §3, §4, §5, §6, §7, §8

Zea mays = experiment: Damage to crop plant ZEAMA, visual scoring vs untreated
Description: as §1, §2, §3, §4

Abuthilon theophrastis = experiment: Herbicidal action on ABUTHE, visual scoring vs untreated, post-emergence 2-4 leaf stage; conditions: Table 12; 4.5 g of ai/ha
Description: as §1, §2
(§9) In the greenhouse experiments, the crop plants and broadleaved weeds/grass weeds were grown in No. 13 pots and treated in the 2–4 leaf stage. […]
(§10) In cases with less clear effects, the expected value was calculated using Colby's formula and compared with the empirically determined result. The calculated efficacy of a combination which is expected in theory is determined is using S.R. Colby's formula: “Calculation of synergistic and antagonistic responses of herbicide combinations”, Weeds 15 (1967), pages 20 to 22. […]

Ambrosia elatior = experiment: Herbicidal action on AMBEL, visual scoring vs untreated, post-emergence 2-4 leaf stage; conditions: Table 12; 4.5 g of ai/ha
Description: as §1, §2, §9, §10

Echinochloa crus galli = experiment: Herbicidal action on ECHCR, visual scoring vs untreated, post-emergence 2-4 leaf stage; conditions: Table 8
Description: as §1, §2, §3, §4, §5, §6, §7, §8

Centaurea cyanus = experiment: Herbicidal action on CENCY, visual scoring vs untreated, post-emergence 2-4 leaf stage
Description: as §1, §2, §3, §4, §5, §6, §7, §8

Secale cereale = experiment: Damage to crop plant SECCW, visual scoring vs untreated; conditions: Table 10; 20 g of a.i./ha
Description: as §1, §2, §3, §4

Fallopia convolvulus = experiment: Herbicidal action on FALCO, visual scoring vs untreated, post-emergence 2-4 leaf stage; conditions: Table 9
Description: as §1, §2, §3, §4, §5, §6, §7, §8

Phalaris canariensis = experiment: Herbicidal action on PHACA, visual scoring vs untreated, post-emergence 2-4 leaf stage (greenhouse / field trials); conditions: Table 3
Description: as §1, §2, §3, §4, §5, §6, §7, §8

Lolium multiflorum = experiment: Herbicidal action on LOLMU, visual scoring vs untreated, post-emergence 2-4 leaf stage; conditions: Table 3
Description: as §1, §2, §3, §4, §5, §6, §7, §8

Compound N#Cc1cc(I)c(O)c(I)c1 [B22), 4-hydroxy-3,5-di-iodobenzonitrile] has a TRZAW % damage (Triticum aestivum; in vivo) of 0%, a GALAP % control (Gallium aparine; 62.5 g of a.i./ha) of 0% and a GALAP % control (Gallium aparine; 125 g of a.i./ha) of 3%. For the same compound, the GALAP % control (Gallium aparine; 250 g of a.i./ha) was 10% and the GALAP % control (Gallium aparine; 500 g of a.i./ha) was 18%.

With CCOC(=O)COC(=O)c1cc(Oc2ccc(C(F)(F)F)cc2Cl)ccc1[N+](=O)[O-] [B25), fluoroglycofen-ethyl] the TRZAW % damage (Triticum aestivum; in vivo) was 0%, the VIOAR % control (Viola arvensis; 4 g of a.i./ha) was 3% and the VIOAR % control (Viola arvensis; 8 g of a.i./ha) was 18%. It also gave a VIOAR % control (Viola arvensis; 15 g of a.i./ha) of 38% and a VIOAR % control (Viola arvensis; 30 g of a.i./ha) of 62%.

CCOC(=O)C(Cl)Cc1cc(-n2nc(C)n(C(F)F)c2=O)c(F)cc1Cl (stereo not drawn) [B31), carfentrazone-ethyl] gave a ZEAMA % damage (Zea mays; Table 12, 4.5 g of ai/ha) of 5%, an ABUTHE % control (Abuthilon theophrastis) of 60% and an AMBEL % control (Ambrosia elatior) of 0%.

For O=C(Nc1ccc(F)cc1F)c1cccnc1Oc1cccc(C(F)(F)F)c1 [B32), 2′ 4′-difluoro-2-(α,α,α-trifluoro-m-tolyloxy)nicotinanilide], the TRZAW % damage (Triticum aestivum; Table 7, 13 g of a.i./ha) was 0%, the TRZAW % damage (Triticum aestivum; Table 7, 25 g of a.i./ha) was 0% and the TRZAW % damage (Triticum aestivum; Table 7, 50 g of a.i./ha) was 0%. The TRZAW % damage (Triticum aestivum; Table 7, 100 g of a.i./ha) was 0%, the GALAP % control (Gallium aparine; 13 g of a.i./ha) was 0% and the GALAP % control (Gallium aparine; 25 g of a.i./ha) was 0%. For the same compound, the GALAP % control (Gallium aparine; 50 g of a.i./ha) was 5% and the GALAP % control (Gallium aparine; 100 g of a.i./ha) was 5%.

Work on CCNc1nc(Cl)nc(NC(C)C)n1 [B36), 6-chloro-N-^2-ethyl-N-4-isopropyl-1,3,5-triazine-2,4-diamine] yielded an ECHCR % control (Echinochloa crus galli; 375 g of a.i./ha) of 0%, an ECHCR % control (Echinochloa crus galli; 750 g of a.i./ha) of 0% and an ECHCR % control (Echinochloa crus galli; 1500 g of a.i./ha) of 3%. For the same compound, the ECHCR % control (Echinochloa crus galli; 3000 g of a.i./ha) was 3%, the ZEAMA % damage (Zea mays; Table 8, 375 g of a.i./ha) was 0% and the ZEAMA % damage (Zea mays; Table 8, 750 g of a.i./ha) was 0%. It also gave a ZEAMA % damage (Zea mays; Table 8, 1500 g of a.i./ha) of 0% and a ZEAMA % damage (Zea mays; Table 8, 3000 g of a.i./ha) of 0%.

COc1cc(OC)nc(NC(=O)NS(=O)(=O)N(C)S(C)(=O)=O)n1 [B40), 1-(4,6-dimethoxypyrimidin-2-yl)-3-mesyl (methyl)-sulfamoylurea] showed a CENCY % control (Centaurea cyanus; Table 10, 20 g of a.i./ha) of 25% and an SECCW % damage (Secale cereale) of 0%.

COC(=O)c1ccccc1S(=O)(=O)NC(=O)Nc1nc(C)nc(OC)n1 [B41), metsulfuron-methyl] showed a TRZAW % damage (Triticum aestivum; Triticum aestivum, in vivo) of 0%, a TRZAW % damage (Triticum aestivum; in vivo) of 0% and a CENCY % control (Centaurea cyanus; Table 9, 1 g of a.i./ha) of 0%. For the same compound, the CENCY % control (Centaurea cyanus; Table 9, 3 g of a.i./ha) was 0%, the CENCY % control (Centaurea cyanus; Table 9, 5 g of a.i./ha) was 0% and the CENCY % control (Centaurea cyanus; Table 9, 10 g of a.i./ha) was 0%.

Work on COC(=O)c1ccccc1S(=O)(=O)NC(=O)N(C)c1nc(C)nc(OC)n1 [B42), tribenuron-methyl] yielded a TRZAW % damage (Triticum aestivum; Triticum aestivum, in vivo) of 0%, an FALCO % control (Fallopia convolvulus; 5 g of a.i./ha) of 88% and an FALCO % control (Fallopia convolvulus; 10 g of a.i./ha) of 93%. The FALCO % control (Fallopia convolvulus; 20 g of a.i./ha) was 95% and the FALCO % control (Fallopia convolvulus; 40 g of a.i./ha) was 97%.

imazamethabenz-methyl [B8)] was tested, and the PHACA % control (Phalaris canariensis; 375 g of a.i./ha) was 0%, the PHACA % control (Phalaris canariensis; 750 g of a.i./ha) was 0% and the PHACA % control (Phalaris canariensis; 1500 g of a.i./ha) was 13%. It also gave an LOLMU % control (Lolium multiflorum; 375 g of a.i./ha) of 0%, an LOLMU % control (Lolium multiflorum; 750 g of a.i./ha) of 0% and an LOLMU % control (Lolium multiflorum; 1500 g of a.i./ha) of 20%.

Reference: patent publication US7074743B1, “Herbicidal composition comprising 4-iodo-2-[3-(4-methoxy-6-methyl-1,3,5-triazin-2-yl)ureidosulfonyl]benzoic esters” (priority 1995, dated 2006)
